What was measured:
[1] = molecular target: T1, hOAT2A (Homo sapiens, UniProt Q9Y694); test: Competition assay of 3H-PAH uptake in EcR293/OAT2A cells; assay type: cell-based; design: Isolation of Full-length Human OAT2A and OAT2B cDNA; expressed in transfected cells; host or cells: EcR293 (Invitrogen); conditions: 100 μM competitor
T1 sequence (Q9Y694 1-546 isoform Q9Y694-2): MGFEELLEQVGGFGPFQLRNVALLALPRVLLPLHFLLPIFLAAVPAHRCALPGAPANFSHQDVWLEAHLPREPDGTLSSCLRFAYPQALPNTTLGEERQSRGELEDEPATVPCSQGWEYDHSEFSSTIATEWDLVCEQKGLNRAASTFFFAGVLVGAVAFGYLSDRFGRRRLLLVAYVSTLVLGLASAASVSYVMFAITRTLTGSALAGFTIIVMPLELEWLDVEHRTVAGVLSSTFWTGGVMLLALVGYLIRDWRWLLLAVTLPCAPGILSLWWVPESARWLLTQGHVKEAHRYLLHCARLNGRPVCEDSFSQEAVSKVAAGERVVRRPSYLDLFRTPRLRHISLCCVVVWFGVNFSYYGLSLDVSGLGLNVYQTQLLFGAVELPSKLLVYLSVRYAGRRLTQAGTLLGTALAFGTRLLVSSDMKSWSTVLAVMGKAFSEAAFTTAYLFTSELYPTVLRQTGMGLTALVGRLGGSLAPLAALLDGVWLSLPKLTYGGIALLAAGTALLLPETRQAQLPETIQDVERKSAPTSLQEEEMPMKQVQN

[2] = molecular target: T1, hOAT2A; test: 3H-PAH uptake in EcR293 cells stably containing pIND(sp1)-hOAT2A, ponasterone induced; conditions: EcR293, 1.25 μg/ml ponasterone for 24 hours
Source text: Vector pIND(sp1) (Invitrogen) contains the ecdysone-inducible promoter (EcRE). […] After cloning, the vectors were separately transfected into cell line EcR293 (Invitrogen). […] The pVgRXR vector constitutively expresses the ecdysone receptor and the retinoid X receptor (RXR). The ecdysone receptor and RXR form a heterodimer which, upon activation by the hormone ecdysone, binds to a promoter containing the EcRE. The pVgRXR vector was maintained within the EcR293 cell line by selection with 400 μg/ml zeocin. The pIND(sp1)-hOAT plasmids contain a neomycin resistance marker, and cells stably integrating the plasmids were selected for by culturing the cells in media supplemented with 400 μg/ml G418. After two weeks of selection, individual colonies appeared and were isolated and expanded. […] The cells were then subjected to standard transport assays.
Expression of hOAT1 at high levels can be easily achieved by inducing with ponasterone for twenty-four (24) hours.

Row | SMILES | effect on uptake of 3H-PAH in EcR293/OAT2A cells [1] | effect on uptake of 3H-PAH in EcR293/OAT2A cells ([1]; listed as sulfobromophthalein) | 3H-PAH uptake, ponasterone induced versus non-induced cells (hOAT2A) [2]
1 | O=C1OC(c2ccc(O)c(S(=O)(=O)O)c2)(c2ccc(O)c(S(=O)(=O)O)c2)c2c(Br)c(Br)c(Br)c(Br)c21 [BSP, sulfobromophthalein] | blocked | competed | –
2 | Nc1ccc(C(=O)NCC(=O)O)cc1 [PAH, p-aminohippurate] | – | – | approximately 2.6 fold
